Reference: US8022203B2, “Amino derivatives of beta-homoandrostanes and beta-heteroandrostanes” (Sigma-Tau Industrie Farmaceutiche Riunite S.p.A., priority 2006, dated 2011)
Where a name gives a salt, the structure may show the parent alone.

Key:
Na^+,K^+-ATPase = Na^+,K^+-ATPase (Canis lupus familiaris, UniProt P50997); test: Dog kidney Na+,K+-ATPase inhibition (hydrolysis of 32P-ATP); format: biochemical; conditions: Na^+,K^+-ATPase Inhibition IC50
[1] = system: spontaneous hypertensive rats of the Milan (MHS); test: Systolic blood pressure fall in spontaneous hypertensive rats (MHS), tail-cuff; format: in vivo, rat; conditions: five weeks, vs vehicle control
[2] = system: hypertensive ouabain-sensitive rats (OS rats); test: Systolic blood pressure fall in hypertensive ouabain-sensitive rats (OS rats), tail-cuff; format: in vivo, rat; conditions: 10 μg/kg/day by mouth, four weeks
Experimental: The ability of these compounds to lower blood pressure was tested by using animal models with genetic arterial hypertension, in particular, spontaneous hypertensive rats of the Milan (MHS) (Bianchi G., Ferrari P., Barber B. The Milan Hypertensive strain. In Handbook of hypertension. Vol. 4: Experimental and genetic models of hypertension. Ed. W. de jong-Elsevier Science Publishers B.V., 1984:328-349) and rats made hypertensive by chronic infusion of ouabain, according to Ferrari P., et al. J. Pharm. Exp. Ther. 1998, 285, 83-94.
The procedure adopted to test the antihypertensive activity of the compounds on the above mentioned model was the following: systolic blood pressure (SBP) and heart rate (HR) were measured by an indirect tail-cuff method.
SBP and HR were measured weekly 6 hours after the treatment.

CC12CCC3C(CC(=O)NC4CC(=NOCCN)CCC43C)C1CCC2=O (stereo not drawn) [I-aa, (E,Z) 3-(2-Aminoethoxyimino)-6-aza-7a-homoandrostane-7,17-dione hydrochloride]
IC50 (Na^+,K^+-ATPase): 25 µM
SBP - % ([1]; 0.001 μg/kg/os daily): 0.0%
SBP - mm Hg (decrease in systolic blood pressure) ([1]; 0.001 μg/kg/os daily): 1.0 +/− 1.1 mm Hg
SBP - % ([1]; 0.01 μg/kg/os daily): 5.2%
SBP - mm Hg (decrease in systolic blood pressure) ([1]; 0.01 μg/kg/os daily): 8.8 +/− 1.6 mm Hg
SBP - % ([1]; 0.1 μg/kg/os daily): 6.5%
SBP - mm Hg (decrease in systolic blood pressure) ([1]; 0.1 μg/kg/os daily): 11.3 +/− 1.5 mm Hg
SBP - % ([1]; 1 μg/kg/os daily): 6.0%
SBP - mm Hg (decrease in systolic blood pressure) ([1]; 1 μg/kg/os daily): 10.0 +/− 2.1 mm Hg
SBP - % ([1]; 10 μg/kg/os daily): 7.1%
SBP - mm Hg (decrease in systolic blood pressure) ([1]; 10 μg/kg/os daily): 12.3 +/− 1.1 mm Hg
SBP - % [2]: 10.0%
SBP - mm Hg (fall) [2]: 17.0 mm Hg
SBP mm Hg [2]: 153.0 mm Hg

CC12CCC3C(CCN(C=O)C4CC(=NOC5CCNC5)CCC34C)C1CCC2=O [I-ap, (E,Z) 3-[3-(R)-Pyrrolidinyl]oxyimino-6-aza-6-formyl-7a-homoandrostane-17-one hydrochloride]
IC50 (Na^+,K^+-ATPase): 35 µM
SBP - % [2]: 9.4%
SBP - mm Hg (fall) [2]: 15.0 mm Hg
SBP mm Hg [2]: 154.0 mm Hg
